The supplement of paper PMC10883282

What was measured:
Assay in all cases: relative viability vs DMSO control (72 h) (fraction); higher = more viable cells
[1] = test system: VA-ES-BJ
How it was run: (§1)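 After seeding at densities set for 80–90% confluence in 384-well plates, sarcoma cell lines waited 24 h before 2.5 µl of serially diluted compound was added. Source plates held 10 mM down to 0.0002 mM. Plates were incubated 72 h at 37 °C with 5% CO2, with 0.1% DMSO vehicle and a 5 µM positive control, and relative viability was taken from ATPLite as percent growth averaged over up to triplicate wells, with 1 set as full and 0 as none.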

[2] = test system: SW982
How it was run: as §1

[3] = test system: SW684
How it was run: as §1

[4] = test system: G401
How it was run: as §1

[5] = test system: A204
How it was run: as §1

[6] = test system: KHOS-NP
How it was run: as §1

[7] = test system: SK-ES-1
How it was run: as §1

[8] = test system: HS729
How it was run: as §1

[9] = test system: RD-ES
How it was run: as §1

[10] = test system: SK-LMS-1
How it was run: as §1

[11] = test system: HT1080
How it was run: as §1

[12] = test system: SW872
How it was run: as §1

CCOc1cc2ncc(C#N)c(Nc3ccc(OCc4ccccn4)c(Cl)c3)c2cc1NC(=O)/C=C/CN(C)C [Neratinib]
Settings | relative viability
[1], 0.00017 µM | 0.999
[1], 0.00051 µM | 1.01
[1], 0.00152 µM | 1.02
[1], 0.00457 µM | 1
[1], 0.01372 µM | 0.969
[1], 0.04115 µM | 0.92
[1], 0.1235 µM | 0.891
[1], 0.3704 µM | 0.734
[1], 1.111 µM | 0.503
[1], 3.333 µM | 0.483
[1], 10 µM | 0.46
[2], 0.00017 µM | 1.06
[2], 0.00051 µM | 1.07
[2], 0.00152 µM | 1.05
[2], 0.00457 µM | 1.04
[2], 0.01372 µM | 1.05
[2], 0.04115 µM | 1
[2], 0.1235 µM | 0.87
[2], 0.3704 µM | 0.483
[2], 1.111 µM | 0.379
[2], 3.333 µM | 0.215
[2], 10 µM | 0.0234
[3], 0.00017 µM | 1.16
[3], 0.00051 µM | 1.1
[3], 0.00152 µM | 1.11
[3], 0.00457 µM | 1.13
[3], 0.01372 µM | 1.16
[3], 0.04115 µM | 1.116
[3], 0.1235 µM | 1.06
[3], 0.3704 µM | 0.848
[3], 1.111 µM | 0.826
[3], 3.333 µM | 0.792
[3], 10 µM | -0.0161
[4], 0.00017 µM | 1.02
[4], 0.00051 µM | 1
[4], 0.00152 µM | 0.998
[4], 0.00457 µM | 0.992
[4], 0.01372 µM | 1
[4], 0.04115 µM | 0.95
[4], 0.1235 µM | 0.93
[4], 0.3704 µM | 0.791
[4], 1.111 µM | 0.692
[4], 3.333 µM | 0.56
[4], 10 µM | 0.0616
[5], 0.00017 µM | 1.09
[5], 0.00051 µM | 1.09
[5], 0.00152 µM | 1.08
[5], 0.00457 µM | 1.097
[5], 0.01372 µM | 1.03
[5], 0.04115 µM | 1.06
[5], 0.1235 µM | 1.01
[5], 0.3704 µM | 0.665
[5], 1.111 µM | 0.395
[5], 3.333 µM | 0.338
[5], 10 µM | -0.00133
[6], 0.00017 µM | 1.042
[6], 0.00051 µM | 1.022
[6], 0.00152 µM | 1.022
[6], 0.00457 µM | 1.01
[6], 0.01372 µM | 1.04
[6], 0.04115 µM | 1.01
[6], 0.1235 µM | 1.05
[6], 0.3704 µM | 1.02
[6], 1.111 µM | 0.73
[6], 3.333 µM | 0.484
[6], 10 µM | 0.486
[7], 0.00017 µM | 1.05
[7], 0.00051 µM | 1.02
[7], 0.00152 µM | 1.04
[7], 0.00457 µM | 1.01
[7], 0.01372 µM | 1.01
[7], 0.04115 µM | 0.963
[7], 0.1235 µM | 0.797
[7], 0.3704 µM | 0.397
[7], 1.111 µM | 0.298
[7], 3.333 µM | 0.235
[7], 10 µM | 0.00187
[8], 0.00017 µM | 0.944
[8], 0.00051 µM | 0.922
[8], 0.00152 µM | 0.955
[8], 0.00457 µM | 0.905
[8], 0.01372 µM | 0.925
[8], 0.04115 µM | 0.861
[8], 0.1235 µM | 0.771
[8], 0.3704 µM | 0.672
[8], 1.111 µM | 0.639
[8], 3.333 µM | 0.645
[8], 10 µM | 0.00633
[9], 0.00017 µM | 1.03
[9], 0.00051 µM | 1.01
[9], 0.00152 µM | 0.999
[9], 0.00457 µM | 0.996
[9], 0.01372 µM | 0.997
[9], 0.04115 µM | 0.977
[9], 0.1235 µM | 0.938
[9], 0.3704 µM | 0.737
[9], 1.111 µM | 0.498
[9], 3.333 µM | 0.431
[9], 10 µM | 0.345
[10], 0.00017 µM | 1.03
[10], 0.00051 µM | 1
[10], 0.00152 µM | 1.06
[10], 0.00457 µM | 1.02
[10], 0.01372 µM | 1.08
[10], 0.04115 µM | 1.06
[10], 0.1235 µM | 0.943
[10], 0.3704 µM | 0.724
[10], 1.111 µM | 0.698
[10], 3.333 µM | 0.646
[10], 10 µM | 0.0104
[11], 0.00017 µM | 1.05
[11], 0.00051 µM | 1.05
[11], 0.00152 µM | 1.028
[11], 0.00457 µM | 1.04
[11], 0.01372 µM | 1.047
[11], 0.04115 µM | 1.07
[11], 0.1235 µM | 1.08
[11], 0.3704 µM | 0.992
[11], 1.111 µM | 0.726
[11], 3.333 µM | 0.603
[11], 10 µM | 0.00637
[12], 0.00017 µM | 1.03
[12], 0.00051 µM | 1.02
[12], 0.00152 µM | 1.03
[12], 0.00457 µM | 1.03
[12], 0.01372 µM | 1.01
[12], 0.04115 µM | 0.97
[12], 0.1235 µM | 0.932
[12], 0.3704 µM | 0.76
[12], 1.111 µM | 0.609
[12], 3.333 µM | 0.492
[12], 10 µM | -0.00553
